Experimental data published in paper PMC9597602, “Metal Complexes as Antifungals? From a Crowd-Sourced Compound Library to the First In Vivo Experiments” (JACS Au, 2022).
“And” between values parts separate entries of the source, which are not always exact repeats. Equal entries are not always repeated. Where two headings read alike, the source gives them in different places. Starred links: 1 amine or outer side, 2 acyl side, 3 side chain; linkers in the order of their positions; H or OH if unused. Positions of bridges follow the written chain, without caps; N, C: chain ends. Non-standard residues stand in square brackets, D forms with d. Residues, ends and D or L forms follow the SMILES beside them. *: point of attachment. hTyr(3S-OH,4S-OH,3'-OSO3H) = N[C@H](C(=O)O)[C@H](O)[C@@H](O)c1ccc(O)c(OS(=O)(=O)O)c1; Orn(4R-OH,5R-OH) = O=C([C@H](C[C@@H](O)[C@@H](O)N[*:3])N[*:1])[*:2]; Pro(3S-OH,4S-Me) = C[C@H]1CN[C@H](C(=O)O)[C@H]1O; X1 = CCCCCOc1ccc(-c2cc(-c3ccc(C(=O)*)cc3)no2)cc1; Gln(3R-OH) = NC(=O)C[C@@H](O)[C@H](N)C(=O)O; Hyp = O=C(O)[C@@H]1C[C@@H](O)CN1

Key:
[1] = test system: Cryptococcus neoformans H99 ATCC 208821 type strain; assay: Antifungal MIC assay; format: cell-based
Method in brief: (§1)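 Yeasts grown 3 days on YPD agar at 30 °C; suspension diluted in YNB medium to a final 2.5 × 10^3 CFU/mL and exposed to compound at 35 °C for 36 h without shaking. MIC taken as lowest concentration giving ≥80% growth inhibition (CLSI M27 score 0–1).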

human red blood cells = format: cell-based
Method: Human whole blood (Australian Red Cross) was washed three times with 3 vol of 0.9% NaCl and resuspended in a concentration of 0.5 × 10^8 cells/mL, determined by a manual cell count in a Neubauer hemocytometer. […] After incubation, the plates were centrifuged at 1000g for 10 min to pellet cells and debris; 25 μL of the supernatant was then transferred to reading plates (384-well, polystyrene plated (PS), Corning CLS3680), with hemolysis determined by measuring the supernatant absorbance at […] (OD405) using cells without inhibitors as negative control and cells with 1% Triton X-100 (Sigma T8787) as positive control. […] Melittin (Sigma M2272) was used as internal control on each plate.

[2] = test system: Candida tropicalis ATCC 750; assay: Antifungal MIC assay, extended panel; format: cell-based
[3] = test system: Escherichia coli ATCC 25922 FDA control strain; assay: CO-ADD antibacterial MIC assay; format: cell-based; details: initial CO-ADD dose-response screening; ≥80% growth inhibition
Method: (§2) For the all the bacterial assays, each bacterial strain was cultured in cation-adjusted Mueller Hinton broth (CAMHB; Bacto Laboratories 212322) at 37 °C overnight. A sample of each culture was then diluted 40-fold in fresh CAMHB and incubated at 37 °C for 1.5–3 h. The resultant mid-log phase cultures were diluted with CAMHB (CFU/mL measured by OD600) and then added to each well of the compound-containing plates (384-well non-binding surface (NBS) plates; Corning CLS3640), giving a cell density of 5 × 10^5 CFU/mL and a total volume of 50 μL. Plates were covered and incubated at 37 °C for 18 h without shaking. Inhibition of bacterial growth was determined by measuring the absorbance at 600 nm (OD600) using media only as negative control and bacteria without inhibitors as positive control. MIC values were determined as the lowest concentration at which the growth was inhibited by ≥80% (equivalent to no visible growth by the eye). Colistin sulfate (Sigma C4461) and vancomycin HCl (Sigma 861987) were used as internal controls on each plate for Gram-negative and Gram-positive bacteria, respectively. All compounds were tested as two technical replicates in two independent biological assays, n = 4 final data.

[4] = test system: Pseudomonas aeruginosa ATCC 27853 QC control strain; assay: CO-ADD antibacterial MIC assay; format: cell-based; details: initial CO-ADD dose-response screening; ≥80% growth inhibition
Method: as §2

[5] = test system: Acinetobacter baumannii ATCC 19606 type strain; assay: CO-ADD antibacterial MIC assay; format: cell-based; details: initial CO-ADD dose-response screening; ≥80% growth inhibition
Method: as §2

[6] = test system: methicillin-resistant Staphylococcus aureus ATCC 43300; assay: CO-ADD antibacterial MIC assay; format: cell-based; details: initial CO-ADD dose-response screening; ≥80% growth inhibition
Method: as §2

[7] = test system: Candida albicans ATCC 90028 NCCLS11; assay: Antifungal MIC assay; format: cell-based
Method in brief: as §1

[8] = test system: Cryptococcus deuterogattii ATCC 32609 VGII; assay: Antifungal MIC assay, extended panel; format: cell-based; details: extended panel, second batch; ≥80 or ≥50% inhibition
Method: (§3) For the fungal assays, both fungi (yeast) strains were cultured for 3 days on Yeast Extract-Peptone Dextrose (YPD; Becton Dickinson 242720) agar at 30 °C. A yeast suspension of 1 × 10^6 to 5 × 10^6 CFU/mL (as determined by OD530) was prepared from five colonies from the agar plates, subsequently diluted with Yeast Nitrogen Base media (YNB; Becton Dickinson 233520), and added to each well of the compound containing plates (384-well plates, NBS; Corning CLS3640), giving a final cell density of 2.5 × 10^3 CFU/mL and a total volume of 50 μL. Plates were covered and incubated at 35 °C for 36 h without shaking. […] MIC values were recorded as the lowest concentration at which the growth was inhibited by ≥80%, equivalent to ″optically clear-to-slightly hazy″ or MIC score of 0–1 as per CLSI guidelines M27 Reference Method for Broth Dilution Antifungal Susceptibility Testing of Yeasts. […] Fluconazole (Sigma F8929) was used as internal control on each plate for all strains. All compounds were tested as two technical replicates in two to four independent biological assays, n = 4–8 final data.

[9] = test system: Candida tropicalis ATCC 750; assay: Antifungal MIC assay, extended panel; format: cell-based; details: extended panel, second batch; ≥80 or ≥50% inhibition
Method: as §3

[10] = test system: Candida glabrata ATCC 90030 NCCLS 84; assay: Antifungal MIC assay, extended panel; format: cell-based; details: extended panel, second batch; ≥80 or ≥50% inhibition
Method: as §3

[11] = test system: Cryptococcus deuterogattii CBS7750 VGII; Serotype B; assay: Antifungal MIC assay, extended panel; format: cell-based; details: extended panel, second batch; ≥80 or ≥50% inhibition
Method: as §3

[12] = test system: HEK-293 human embryonic kidney cells ATCC CRL-1573
Method: The cells were incubated together with the compounds for 20 h at 37 °C in 5% CO2. […] Tamoxifen (Sigma T5648) was used as internal control on each plate.

[13] = test system: Candida auris CBS10913 JCM 15448; assay: Antifungal MIC assay, extended panel; format: cell-based
Method: as §3, with “values were recorded as the lowest concentration at which the growth was inhibited by ≥80%, equivalent to ″optically clear-to-slightly hazy″ or MIC score of 0–1 as per CLSI guidelines M27” left out

[14] = test system: Candida auris CBS12373 KCTC 17810; assay: Antifungal MIC assay, extended panel; format: cell-based
Method: as §3, with “values were recorded as the lowest concentration at which the growth was inhibited by ≥80%, equivalent to ″optically clear-to-slightly hazy″ or MIC score of 0–1 as per CLSI guidelines M27” left out

[15] = test system: Cryptococcus deuterogattii CBS7750 VGII; Serotype B; assay: Antifungal MIC assay, extended panel; format: cell-based
[16] = test system: Candida glabrata ATCC 90030 NCCLS 84; assay: Antifungal MIC assay, extended panel; format: cell-based
[17] = test system: Cryptococcus deuterogattii ATCC 32609 VGII; assay: Antifungal MIC assay, extended panel; format: cell-based
[18] = extended panel, 50% inhibition, MIC score 2
[19] = initial CO-ADD dose-response screening, ≥80% growth inhibition
[20] = extended panel, second batch, ≥80 or ≥50% inhibition

Question: With `Cc1c(C)c(-c2ccc(-c3ccccc3)cc2)[c-](C)c1C.Cc1ccccc1NC1=[NH+][Ir]([Cl])[NH]C(NS(=O)(=O)c2cccc3c(N(C)C)cccc23)=N1` [Ir3] as the compound, how does the MIC ([1]; extended panel, second batch, ≥80 or ≥50% inhibition, read-out: MIC* Cryptococcus neoformans ATCC 208821) read?
Answer: 0.024 µM

Question: And the “MIC50 Cryptococcus neoformans ATCC 208821” value [1, 18]?
Answer: 0.024 µM

Question: What about the “MIC Cn” value [1, 19] of the same compound?
Answer: 1 µg/mL

Question: And the “RBC HC10” value (human red blood cells; initial CO-ADD screening, 1 h, 10% hemolysis)?
Answer: >32 µg/mL

Question: And the “RBC HC10” value (human red blood cells; ranges obtained upon retesting, new batch)?
Answer: 3 to 41 µM

Question: And the “MIC50 Candida tropicalis ATCC 750” value [2, 18]?
Answer: 0.098 µM

Question: What about the “MIC Ec” value [3] of the same compound?
Answer: >32 µg/mL

Question: What about the “MIC Pa” value [4] of the same compound?
Answer: >32 µg/mL

Question: And the “MIC Ab” value [5]?
Answer: >32 µg/mL

Question: What about the “MIC MRSA (Sa)” value [6] of the same compound?
Answer: 0.5 µg/mL

Question: And the “MIC Candida albicans ATCC 90028” value [7, 20]?
Answer: 0.024 to 0.098 µM

Question: And the “MIC50 Candida albicans ATCC 90028” value [7, 18]?
Answer: 0.049 µM

Question: What about the “MIC Ca” value [7, 19] of the same compound?
Answer: 2 µg/mL

Question: And the “MIC Cryptococcus deuterogattii ATCC 32609” value [8]?
Answer: 0.049 to 0.2 µM

Question: And the MIC [9]?
Answer: 0.098 µM

Question: What about the MIC [10] of the same compound?
Answer: 0.098 µM

Question: And the “MIC Cryptococcus deuterogattii CBS7750” value [11]?
Answer: 0.024 to 0.049 µM

Question: What about the “HEK CC50” value ([12]; initial CO-ADD screening, 20 h) of the same compound?
Answer: >32 µg/mL

Question: What about the CC50 ([12]; read-out: HEK293 CC50, ranges obtained upon retesting, new batch) of the same compound?
Answer: 54 to 76 µM

Question: What about the “MIC Candida auris CBS10913” value [13, 20] of the same compound?
Answer: 0.024 to 0.098 µM

Question: What about the “MIC50 Candida auris CBS10913” value [13, 18] of the same compound?
Answer: 0.098 µM

Question: What about the “MIC50 Candida auris CBS12373” value [14, 18] of the same compound?
Answer: 0.024 to 0.049 µM

Question: And the “MIC50 Cryptococcus deuterogattii CBS7750” value [15, 18]?
Answer: 0.024 µM

Question: What about the “MIC50 Candida glabrata ATCC 90030” value [16, 18] of the same compound?
Answer: 0.098 µM

Question: What about the “MIC50 Cryptococcus deuterogattii ATCC 32609” value [17, 18] of the same compound?
Answer: 0.049 to 0.098 µM

Question: What does the source list for `CCCCCOc1ccc(-c2cc(-c3ccc(C(=O)N[C@H]4C[C@@H](O)[C@@H](O)NC(=O)[C@@H]5[C@@H](O)[C@@H](C)CN5C(=O)[C@H]([C@H](O)CC(N)=O)NC(=O)[C@H]([C@H](O)[C@@H](O)c5ccc(O)c(OS(=O)(=O)O)c5)NC(=O)[C@@H]5C[C@@H](O)CN5C(=O)[C@H]([C@@H](C)O)NC4=O)cc3)no2)cc1` [Micafungin, reference compound] (X1-[Orn(4R-OH,5R-OH)]T[Hyp][hTyr(3S-OH,4S-OH,3'-OSO3H)][Gln(3R-OH)][Pro(3S-OH,4S-Me)]; lactam 1-C)?
Answer: MIC ([1]; Cryptococcus neoformans, ATCC208821, read-out: MIC* Cryptococcus neoformans ATCC 208821): 0.015 µg/mL to 0.063 µg/mL and 0.017 µM to 0.07 µM; MIC ([2]; Candida tropicalis, ATCC750, read-out: MIC* Candida tropicalis ATCC 750): 0.008 µg/mL to 0.063 µg/mL and 0.009 µM to 0.07 µM; MIC ([7]; Candida albicans, ATCC90028, read-out: MIC* Candida albicans ATCC 90028): ≤ 0.0005 µg/mL and ≤ 0.0007 µM; MIC ([13]; Candidozyma auris, read-out: MIC* Candida auris CBS10913): ≤ 0.001 µg/mL and ≤ 0.0014 µM; MIC ([14]; Candidozyma auris, read-out: MIC* Candida auris CBS12373): 2 µg/mL and 2.23 µM; MIC ([15]; Cryptococcus deuterogattii, CBS7750, read-out: MIC* Cryptococcus deuterogattii CBS7750): 0.06 µg/mL to 0.125 µg/mL and 0.07 µM to 0.139 µM; MIC ([16]; Nakaseomyces glabratus, ATCC90030, read-out: MIC* Candida glabrata ATCC 90030): 4 µg/mL to 32 µg/mL and 4.45 µM to 35.7 µM; MIC ([17]; Cryptococcus deuterogattii, ATCC32609, read-out: MIC* Cryptococcus deuterogattii ATCC 32609): 0.016 µg/mL to 0.125 µg/mL and 0.017 µM to 0.139 µM
